Test results as given in PubChem BioAssay (NCI).
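Following 48 hours of exposure in 96-well plates, responses at five concentrations were used to interpolate endpoints linearly. GI50 = concentration required for 50% inhibition of growth. TGI marks complete inhibition of growth.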

Experiments:
Assay in all cases: NCI-60 cell line screen, 48 h
HCC-2998 colon = test system: HCC-2998 colon
UO-31 renal = test system: UO-31 renal
A549 NSCLC = test system: A549 NSCLC
RPMI-8226 leukemia = test system: RPMI-8226 leukemia
KM12 colon = test system: KM12 colon
HOP-62 NSCLC = test system: HOP-62 NSCLC
IGROV1 ovarian = test system: IGROV1 ovarian
BT-549 breast = test system: BT-549 breast
SK-MEL-5 melanoma = test system: SK-MEL-5 melanoma
SNB-75 CNS = test system: SNB-75 CNS
RXF 393 renal = test system: RXF 393 renal
HT29 colon = test system: HT29 colon
MCF7 breast = test system: MCF7 breast
MDA-MB-435 = test system: MDA-MB-435
NCI-H226 lung = test system: NCI-H226 lung
SN12C renal = test system: SN12C renal
UACC-62 melanoma = test system: UACC-62 melanoma
OVCAR-5 ovarian = test system: OVCAR-5 ovarian
NCI-H522 lung = test system: NCI-H522 lung
DU-145 prostate = test system: DU-145 prostate
HCT-116 colon = test system: HCT-116 colon
TK-10 renal = test system: TK-10 renal
LOX IMVI melanoma = test system: LOX IMVI melanoma
SNB-19 CNS = test system: SNB-19 CNS
SF-295 CNS = test system: SF-295 CNS
SF-268 CNS = test system: SF-268 CNS
NCI-H460 lung = test system: NCI-H460 lung
HOP-92 NSCLC = test system: HOP-92 NSCLC
SK-OV-3 ovarian = test system: SK-OV-3 ovarian
SK-MEL-28 melanoma = test system: SK-MEL-28 melanoma
PC-3 prostate = test system: PC-3 prostate
UACC-257 melanoma = test system: UACC-257 melanoma
HCT-15 colon = test system: HCT-15 colon
K-562 leukemia = test system: K-562 leukemia
OVCAR-3 ovarian = test system: OVCAR-3 ovarian
CCRF-CEM leukemia = test system: CCRF-CEM leukemia
T-47D breast = test system: T-47D breast
HS 578T breast = test system: HS 578T breast
EKVX NSCLC = test system: EKVX NSCLC
A498 renal = test system: A498 renal
786-0 renal = test system: 786-0 renal
ACHN renal = test system: ACHN renal
HL-60(TB) leukemia = test system: HL-60(TB) leukemia
OVCAR-8 ovarian = test system: OVCAR-8 ovarian
OVCAR-4 ovarian = test system: OVCAR-4 ovarian
NCI-H23 lung = test system: NCI-H23 lung
MOLT-4 leukemia = test system: MOLT-4 leukemia
CAKI-1 renal = test system: CAKI-1 renal
SK-MEL-2 melanoma = test system: SK-MEL-2 melanoma
COLO 205 colon = test system: COLO 205 colon
SF-539 CNS = test system: SF-539 CNS
SR leukemia = test system: SR leukemia
MALME-3M melanoma = test system: MALME-3M melanoma
SW-620 colon = test system: SW-620 colon
U251 CNS = test system: U251 CNS
NCI/ADR-RES ovarian = test system: NCI/ADR-RES ovarian
MDA-MB-231 breast = test system: MDA-MB-231 breast

CCOC(=O)c1c(NC(=O)c2ccc(C(F)(F)F)cc2)sc2c(CN3CCN(C)CC3)c(O)ccc12
GI50 (HCC-2998 colon): 1.71 µM
TGI (HCC-2998 colon): 3.23 µM
GI50 (UO-31 renal): 1.51 µM
TGI (UO-31 renal): 2.95 µM
GI50 (A549 NSCLC): 1.85 µM
TGI (A549 NSCLC): 3.85 µM
GI50 (RPMI-8226 leukemia): 1.73 µM
TGI (RPMI-8226 leukemia): 3.95 µM
GI50 (KM12 colon): 1.79 µM
TGI (KM12 colon): 3.34 µM
GI50 (HOP-62 NSCLC): 1.82 µM
TGI (HOP-62 NSCLC): 3.99 µM
GI50 (IGROV1 ovarian): 1.79 µM
TGI (IGROV1 ovarian): 3.47 µM
GI50 (BT-549 breast): 1.85 µM
TGI (BT-549 breast): 4.15 µM
GI50 (SK-MEL-5 melanoma): 3.03 µM
TGI (SK-MEL-5 melanoma): 10.1 µM
GI50 (SNB-75 CNS): 2.05 µM
TGI (SNB-75 CNS): 4.92 µM
GI50 (RXF 393 renal): 1.59 µM
TGI (RXF 393 renal): 3.81 µM
GI50 (HT29 colon): 1.83 µM
TGI (HT29 colon): 3.68 µM
GI50 (MCF7 breast): 1.82 µM
TGI (MCF7 breast): 3.65 µM
GI50 (MDA-MB-435): 1.73 µM
TGI (MDA-MB-435): 3.12 µM
GI50 (NCI-H226 lung): 1.95 µM
TGI (NCI-H226 lung): 4.07 µM
GI50 (SN12C renal): 1.76 µM
TGI (SN12C renal): 3.44 µM
GI50 (UACC-62 melanoma): 1.79 µM
TGI (UACC-62 melanoma): 3.59 µM
GI50 (OVCAR-5 ovarian): 1.77 µM
TGI (OVCAR-5 ovarian): 3.19 µM
GI50 (NCI-H522 lung): 2.19 µM
TGI (NCI-H522 lung): 5.56 µM
GI50 (DU-145 prostate): 1.97 µM
TGI (DU-145 prostate): 3.79 µM
GI50 (HCT-116 colon): 1.68 µM
TGI (HCT-116 colon): 3.34 µM
GI50 (TK-10 renal): 1.62 µM
TGI (TK-10 renal): 3.16 µM
GI50 (LOX IMVI melanoma): 1.78 µM
TGI (LOX IMVI melanoma): 3.19 µM
GI50 (SNB-19 CNS): 1.79 µM
TGI (SNB-19 CNS): 3.48 µM
GI50 (SF-295 CNS): 1.94 µM
TGI (SF-295 CNS): 3.98 µM
GI50 (SF-268 CNS): 1.87 µM
TGI (SF-268 CNS): 4.01 µM
GI50 (NCI-H460 lung): 1.77 µM
TGI (NCI-H460 lung): 3.38 µM
GI50 (HOP-92 NSCLC): 1.36 µM
TGI (HOP-92 NSCLC): 3.11 µM
GI50 (SK-OV-3 ovarian): 1.93 µM
TGI (SK-OV-3 ovarian): 4.21 µM
GI50 (SK-MEL-28 melanoma): 1.73 µM
TGI (SK-MEL-28 melanoma): 3.16 µM
GI50 (PC-3 prostate): 1.69 µM
TGI (PC-3 prostate): 3.22 µM
GI50 (UACC-257 melanoma): 2.12 µM
TGI (UACC-257 melanoma): 4.98 µM
GI50 (HCT-15 colon): 1.74 µM
TGI (HCT-15 colon): 3.5 µM
GI50 (K-562 leukemia): 1.13 µM
TGI (K-562 leukemia): 5.86 µM
GI50 (OVCAR-3 ovarian): 1.75 µM
TGI (OVCAR-3 ovarian): 3.17 µM
GI50 (CCRF-CEM leukemia): 1.95 µM
TGI (CCRF-CEM leukemia): 4.77 µM
GI50 (T-47D breast): 1.84 µM
TGI (T-47D breast): 4.54 µM
GI50 (HS 578T breast): 1.99 µM
TGI (HS 578T breast): 4.52 µM
GI50 (EKVX NSCLC): 2.62 µM
TGI (EKVX NSCLC): 8.15 µM
GI50 (A498 renal): 1.63 µM
TGI (A498 renal): 3.3 µM
GI50 (786-0 renal): 1.55 µM
TGI (786-0 renal): 3.32 µM
GI50 (ACHN renal): 1.81 µM
TGI (ACHN renal): 3.21 µM
GI50 (HL-60(TB) leukemia): 1.78 µM
TGI (HL-60(TB) leukemia): 3.94 µM
GI50 (OVCAR-8 ovarian): 2.14 µM
TGI (OVCAR-8 ovarian): 4.77 µM
GI50 (OVCAR-4 ovarian): 2.05 µM
TGI (OVCAR-4 ovarian): 4.43 µM
GI50 (NCI-H23 lung): 2.11 µM
TGI (NCI-H23 lung): 4.73 µM
GI50 (MOLT-4 leukemia): 1.74 µM
TGI (MOLT-4 leukemia): 4 µM
GI50 (CAKI-1 renal): 1.65 µM
TGI (CAKI-1 renal): 3.16 µM
GI50 (SK-MEL-2 melanoma): 2.21 µM
TGI (SK-MEL-2 melanoma): 5 µM
GI50 (COLO 205 colon): 1.87 µM
TGI (COLO 205 colon): 3.76 µM
GI50 (SF-539 CNS): 1.63 µM
TGI (SF-539 CNS): 3.02 µM
GI50 (SR leukemia): 1.11 µM
TGI (SR leukemia): 3.42 µM
GI50 (MALME-3M melanoma): 1.99 µM
TGI (MALME-3M melanoma): 4.28 µM
GI50 (SW-620 colon): 1.71 µM
TGI (SW-620 colon): 3.2 µM
GI50 (U251 CNS): 1.79 µM
TGI (U251 CNS): 3.37 µM
GI50 (NCI/ADR-RES ovarian): 1.92 µM
TGI (NCI/ADR-RES ovarian): 3.83 µM
GI50 (MDA-MB-231 breast): 1.86 µM
TGI (MDA-MB-231 breast): 3.56 µM
